Assay results as given in patent publication US20220291235A1, “ACOUSTO-THERMAL SHIFT ASSAY FOR LABEL-FREE PROTEIN ANALYSIS” (THE REGENTS OF THE UNIVERSITY OF COLORADO - A BODY CORPORATE, priority 2019, published 2022).

Tests used:
[1] = target: T1, citrate synthase (CS) from porcine heart (Sus scrofa, UniProt P00889); test: Acousto-thermal shift assay (A-TSA), CS-OAA binding; details: same SAW actuation (19.6 MHz, 3 Watts), CS 15 μM
T1 construct: citrate synthase (CS) from porcine heart (Millipore Sigma); purchased Millipore Sigma; host or cells: porcine heart
T1 sequence (P00889 28-464): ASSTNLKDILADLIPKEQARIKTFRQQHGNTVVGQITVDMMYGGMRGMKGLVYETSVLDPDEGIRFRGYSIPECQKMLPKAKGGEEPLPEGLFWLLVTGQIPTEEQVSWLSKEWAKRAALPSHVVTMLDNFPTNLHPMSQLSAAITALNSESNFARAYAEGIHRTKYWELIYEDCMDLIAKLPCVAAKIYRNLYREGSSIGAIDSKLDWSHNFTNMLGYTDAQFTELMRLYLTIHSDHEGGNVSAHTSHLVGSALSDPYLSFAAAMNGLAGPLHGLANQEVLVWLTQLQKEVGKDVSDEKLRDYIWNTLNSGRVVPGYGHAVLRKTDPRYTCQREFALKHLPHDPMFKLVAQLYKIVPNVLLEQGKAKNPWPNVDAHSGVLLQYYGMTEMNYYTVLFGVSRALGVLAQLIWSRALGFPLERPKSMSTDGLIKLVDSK
Excerpt: (§1) Specifically, two identical SAWs were generated by applying an AC (alternating current) signal to a pair of interdigital transducers (IDTs) deposited on the surface of a lithium niobate piezoelectric substrate. A standing SAW was formed within a 1×10 mm^2 polydimethylsiloxane (PDMS) microchannel. The microchannel was bonded on top of a substrate between these two IDTs. See, FIGS. 4A(i) and FIG. 4B. […] Most proteins rapidly precipitate and aggregate after their unfolding. See, FIG. 4A(ii).
(§2) Simultaneously, the standing SAW aggregates and concentrates precipitated protein along the acoustic pressure nodes and/or antinodes. See, FIG. 4A(iii). Gray intensity (Im) of the precipitated and aggregated proteins was analyzed and plotted as a function of SAW time, giving rise to a sigmoidal melting curve. See, FIG. 4A(iv). The melting time (Tm) was determined as the time point when half of proteins were unfolded (i.e. herein, a 50% change of gray intensity occurs where Im=(Imax+Imin)/2.). Using this simple analysis, the time shift Δτm between between two samples can be measured at a given SAW power and analyzed to compare conditions or ligands that stabilize or destabilize proteins. Overall, this new technique provides a rapid, simple and efficient workflow for analysis of changes in apparent melting curves. […]

[2] = target: T1, citrate synthase (CS) from porcine heart; test: Conventional thermal shift assay, BCA assay (BCA-TSA), CS-OAA binding
Procedure: (§3) In some embodiments, SAW-driven protein unfolding and concentration can be used for analysis of protein-ligand binding to analyze the melting temperature (Tm) and its shift (Δtm) upon protein-ligand binding. Gray intensity of the precipitated and concentrated proteins was measured and plotted as a function of SAW time in A-TSA. See, FIG. 5A. Two control conventional TSA methods were performed in parallel measuring the data using either a differential scanning fluorimetry (DSF) assay or a bicinchoninic acid (BCA) assay. DSF, the most popular C-TSA method, utilizes dye fluorescence as a measure of protein unfolding. Matulis et al., “Thermodynamic stability of carbonic anhydrase: measurements of binding affinity and stoichiometry using ThermoFluor” J. Biochemistry 44:5258-5266 (2005). On the other hand, BCA quantifies the amount of remaining soluble proteins after thermal unfolding. Brown et al., “Protein measurement using bicinchoninic acid: elimination of interfering substances” Anal. Biochem. 180:136-139 (1989). BCA assay: For thermal gradient profiling, a gradient program was created using a PTC-200 thermal cycler (MJ Research, Reno, N.V., USA) to cover the temperature points indicated in each figure. A PCR plate was prepared with 25 μL per well of recombinant protein or lysate and sealed (4titude Random Access, PN 4ti-0960/RA 96-well plate). […]

[3] = target: T1, citrate synthase (CS) from porcine heart; test: Conventional thermal shift assay, SYPRO DSF assay (DSF-TSA), CS-OAA binding; details: OAA present
Procedure: In some embodiments, SAW-driven protein unfolding and concentration can be used for analysis of protein-ligand binding to analyze the melting temperature (Tm) and its shift (Δtm) upon protein-ligand binding. Gray intensity of the precipitated and concentrated proteins was measured and plotted as a function of SAW time in A-TSA. See, FIG. 5A. Two control conventional TSA methods were performed in parallel measuring the data using either a differential scanning fluorimetry (DSF) assay or a bicinchoninic acid (BCA) assay. DSF, the most popular C-TSA method, utilizes dye fluorescence as a measure of protein unfolding. Matulis et al., “Thermodynamic stability of carbonic anhydrase: measurements of binding affinity and stoichiometry using ThermoFluor” J. Biochemistry 44:5258-5266 (2005). On the other hand, BCA quantifies the amount of remaining soluble proteins after thermal unfolding. Brown et al., “Protein measurement using bicinchoninic acid: elimination of interfering substances” Anal. Biochem. 180:136-139 (1989).
SYPRO DSF assay: SYPRO Orange melting curves were collected using the 7900HT Fast Real-Time PCR System. […] To analyze melting curves, the fluorescence was normalized to the starting temperature and to no protein controls. The data was then scaled to interval (0,1) and then the replicates were averaged, and standard deviation calculated.

human hemoglobin (Hb) [4] = target: T2, human hemoglobin (Hb) (Homo sapiens, UniProt P68871+P69905); test: Acousto-thermal shift assay (A-TSA), Hb-Pal binding; details: SAW 19.6 MHz, 3 Watts, Hb 31 μM
T2 construct: purchased Millipore Sigma
Excerpt: as §1, §2

human hemoglobin (Hb) [5] = target: T2, human hemoglobin (Hb); test: Conventional thermal shift assay, BCA assay (BCA-TSA), Hb-Pal binding
Procedure: as §3

T2 sequence (P69905 2-142 limits assumed): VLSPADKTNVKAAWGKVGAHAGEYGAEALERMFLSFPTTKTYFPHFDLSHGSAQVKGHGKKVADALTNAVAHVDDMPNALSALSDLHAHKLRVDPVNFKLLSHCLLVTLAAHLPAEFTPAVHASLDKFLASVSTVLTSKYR
T2 sequence (P68871 2-147 limits assumed): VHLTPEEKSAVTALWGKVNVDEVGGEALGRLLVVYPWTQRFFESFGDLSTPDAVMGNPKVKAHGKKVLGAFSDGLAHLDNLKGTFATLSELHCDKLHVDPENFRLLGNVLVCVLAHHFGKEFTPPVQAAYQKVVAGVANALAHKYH

Row | SMILES | increase of tm of CS (36.23 s) upon ligand binding ([1]; 1 mM OAA) [s] | increase of tm of CS (36.23 s) upon ligand binding ([1]; 2 mM OAA) [s] | increase of Tm of CS (60.3° C.) upon ligand binding ([2]; 1 mM OAA) [°C] | increase of Tm of CS (60.3° C.) upon ligand binding ([2]; 2 mM OAA) [°C] | tm shift of CS as detected in DSF assay [3] | reduction of melting time (Tm) of Hb (46.85 s) upon ligand binding (human hemoglobin (Hb) [4]; 0.62 mM Pal) [s] | reduction of melting time (Tm) of Hb (46.85 s) upon ligand binding (human hemoglobin (Hb) [4]; 1.24 mM Pal) [s] | decrease of Tm of Hb (59.1° C.) upon ligand binding (human hemoglobin (Hb) [5]; 0.62 mM Pal) [°C] | decrease of Tm of Hb (59.1° C.) upon ligand binding (human hemoglobin (Hb) [5]; 1.24 mM Pal) [°C]
1 | O=C(O)CC(=O)C(=O)O [OAA, oxaloacetic acid] | 10.45 | 15.77 | 2.0 | 2.9 | small and not statistically significant | – | – | – | –
2 | COc1cc2c(cc1OC)-c1cc3ccc(OC)c(OC)c3c[n+]1CC2 [Pal, palmatine chloride] | – | – | – | – | – | 3.52 | 7.30 | 0.7 | 1.1
